Results on eight compounds are retold here after patent US20230295234A1, “ANTIMICROBIAL PEPTIDOMIMETICS” (SPEXIS AG, priority 2020, published 2023).

Structures are written as SMILES. Peptide text beside a SMILES is read from it.

Data set [1] deals with Escherichia coli ATCC 25922. To be noted: ATCC 25922. The method, boiled down:
(§1)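 Standardized inocula (0.5 McFarland in saline, then diluted in MHII broth to approximately 5×10^5 CFU/mL) were exposed to two-fold dilution series of each peptide in the presence of polysorbate 80 (0.002% final).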

Data set [2] concerns Escherichia coli MCR-1 Af 45. To be noted: MCR-1 Af 45. The method, boiled down: as §1
The test system of data set [3] is Klebsiella pneumoniae SSI3010. To be noted: SSI3010. The method, boiled down:
as §1

In data set [4] the test system is human red blood cells (hRBC). Put plainly: Hemolysis of human red blood cells. It counts as cell-based. To be noted: red cells of human, 1 h. The method, boiled down: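 Percent hemolysis is OD540 of peptide-treated supernatant relative to water-lysed cells. Each peptide was tested at 200 μg/mL against 20% (v/v) washed human erythrocytes. Incubation was 1 h at 37 °C, 300 rpm.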

In the case of `CC[C@H](C)[C@H](NC(=O)[C@@H]1CCCN1C(=O)[C@@H](NC(=O)[C@@H]1CCCN1C(=O)[C@H](CCCNC(=N)N)NC(=O)[C@@H](N)CCCCN)C(C)C)C(=O)N[C@@H](CCCNC(=N)N)C(=O)N[C@@H](Cc1ccc(O)cc1)C(=O)N[C@@H]1C(=O)N[C@@H](CC(N)=O)C(=O)N[C@@H](CCCNC(=N)N)C(=O)N[C@@H](CCN)C(=O)N[C@@H]([C@@H](C)O)C(=O)N[C@H](CCN)C(=O)N[C@@H](CCCCN)C(=O)N[C@H](C(=O)N[C@@H](CCN)C(=O)N[C@@H](CCCNC(=N)N)C(=O)N[C@@H](Cc2ccc(O)cc2)C(=O)O)CSSC1(C)C` [Example 86] (HELM PEPTIDE1{K.R.P.V.P.I.R.Y.[Pen].N.R.[Dab].T.[NCC[C@@H](N[*:1])C(=O)[*:2]].K.C.[Dab].R.Y}$PEPTIDE1,PEPTIDE1,9:R3-16:R3$$$V2.0), the “Escherichia coli ATCC 25922 MIC” value in data set [1] is 0.125 µg/mL. The “Escherichia coli MCR-1 Af 45 MIC” value in data set [2] is at most 0.03125 µg/mL. Further, the “Klebsiella pneumoniae SSI3010 MIC” value in data set [3] turned out to be 0.125 µg/mL. For the same compound, in data set [4], the “Hemolysis at 0.2 g/L” value was 0%.
Consider `CC[C@H](C)[C@H](NC(=O)[C@@H]1CCCN1C(=O)[C@@H](NC(=O)[C@@H]1CCCN1C(=O)[C@H](CCCNC(=N)N)NC(=O)[C@@H](N)CCCCN)C(C)C)C(=O)N[C@H](C(=O)N[C@@H](Cc1ccc(O)cc1)C(=O)N[C@@H]1C(=O)N[C@@H](CC(N)=O)C(=O)N[C@@H](CCCNC(=N)N)C(=O)N[C@@H](CCN)C(=O)N[C@@H]([C@@H](C)O)C(=O)N[C@H](CCN)C(=O)N[C@@H](CCCCN)C(=O)N[C@H](C(=O)N[C@@H](CCN)C(=O)N[C@@H](CCCNC(=N)N)C(=O)N[C@@H](Cc2ccc(O)cc2)C(=O)O)CSSC1(C)C)[C@@H](C)O` [Example 87] (HELM PEPTIDE1{K.R.P.V.P.I.T.Y.[Pen].N.R.[Dab].T.[NCC[C@@H](N[*:1])C(=O)[*:2]].K.C.[Dab].R.Y}$PEPTIDE1,PEPTIDE1,9:R3-16:R3$$$V2.0), for which the “Escherichia coli ATCC 25922 MIC” value in data set [1] is at most 0.03125 µg/mL. Also, the “Escherichia coli MCR-1 Af 45 MIC” value in data set [2] is at most 0.03125 µg/mL. For the same compound, the “Klebsiella pneumoniae SSI3010 MIC” value in data set [3] was 0.25 µg/mL. The “Hemolysis at 0.2 g/L” value in data set [4] is given as 0%.
For `CC[C@H](C)[C@H](NC(=O)[C@@H]1CCCN1C(=O)[C@@H](NC(=O)CN(C)C(=O)[C@H](CCCNC(=N)N)NC(=O)[C@@H](N)CCCCN)C(C)C)C(=O)N[C@H](C(=O)N[C@@H](Cc1ccc(O)cc1)C(=O)N[C@@H]1C(=O)N[C@@H](CC(N)=O)C(=O)N[C@@H](CCCNC(=N)N)C(=O)N[C@@H](CCN)C(=O)N[C@@H]([C@@H](C)O)C(=O)N[C@H](CCN)C(=O)N[C@@H](CCCCN)C(=O)N[C@H](C(=O)N[C@@H](CCN)C(=O)N[C@@H](CCCNC(=N)N)C(=O)N[C@@H](Cc2ccc(O)cc2)C(=O)O)CSSC1(C)C)[C@@H](C)O` [Example 88, Lys-Arg-Sar-Val-Pro-Ile-Thr-Tyr-Pen-Asn-Arg-Dab-Thr-^DDab-Lys-Cys-Dab-Arg-Tyr] (HELM PEPTIDE1{K.R.[Sar].V.P.I.T.Y.[Pen].N.R.[Dab].T.[NCC[C@@H](N[*:1])C(=O)[*:2]].K.C.[Dab].R.Y}$PEPTIDE1,PEPTIDE1,9:R3-16:R3$$$V2.0), in data set [1], the “Escherichia coli ATCC 25922 MIC” value was at most 0.03125 µg/mL. Further, the “Escherichia coli MCR-1 Af 45 MIC” value in data set [2] is at most 0.03125 µg/mL. Moreover, in data set [3], the “Klebsiella pneumoniae SSI3010 MIC” value was 0.0625 µg/mL. Also, the “Hemolysis at 0.2 g/L” value in data set [4] turned out to be 0%.
Turning to `CC[C@H](C)[C@H](NC(=O)[C@@H]1CCCN1C(=O)[C@@H](NC(=O)CN(C)C(=O)[C@H](CCCNC(=N)N)NC(=O)[C@@H](N)CCCCN)C(C)C)C(=O)N[C@@H](Cc1ccccc1)C(=O)N[C@@H](Cc1ccc(O)cc1)C(=O)N[C@@H]1C(=O)N[C@@H](CC(N)=O)C(=O)N[C@@H](CCCNC(=N)N)C(=O)N[C@@H](CCN)C(=O)N[C@@H]([C@@H](C)O)C(=O)N[C@H](CCN)C(=O)N[C@@H](CCCCN)C(=O)N[C@H](C(=O)N[C@@H](CCN)C(=O)N[C@@H](CCCNC(=N)N)C(=O)N[C@@H](Cc2ccc(O)cc2)C(=O)O)CSSC1(C)C` [Example 89, Lys-Arg-Sar-Val-Pro-Ile-Phe-Tyr-Pen-Asn-Arg-Dab-Thr-^DDab-Lys-Cys-Dab-Arg-Tyr] (HELM PEPTIDE1{K.R.[Sar].V.P.I.F.Y.[Pen].N.R.[Dab].T.[NCC[C@@H](N[*:1])C(=O)[*:2]].K.C.[Dab].R.Y}$PEPTIDE1,PEPTIDE1,9:R3-16:R3$$$V2.0), in data set [1], the “Escherichia coli ATCC 25922 MIC” value is 0.0625 µg/mL. Also, the “Escherichia coli MCR-1 Af 45 MIC” value in data set [2] was at most 0.03125 µg/mL. Further, in data set [3], the “Klebsiella pneumoniae SSI3010 MIC” value is 0.0625 µg/mL. In data set [4], the “Hemolysis at 0.2 g/L” value is given as 0%.
`CC[C@H](C)[C@H](NC(=O)[C@@H](NC(=O)[C@@H]1CCCN1C(=O)[C@@H](NC(=O)[C@@H]1CCCN1C(=O)[C@@H](C)NC(=O)[C@@H](N)CCCCN)C(C)C)[C@@H](C)CC)C(=O)N[C@@H](Cc1ccc(O)cc1)C(=O)N[C@@H]1C(=O)N[C@@H](CC(N)=O)C(=O)N[C@@H](CCCNC(=N)N)C(=O)N[C@@H](CCN)C(=O)N[C@@H]([C@@H](C)O)C(=O)N[C@H](CCN)C(=O)N[C@@H](CCCCN)C(=O)N[C@H](C(=O)N[C@@H](CCN)C(=O)N[C@@H](CCCNC(=N)N)C(=O)N[C@@H](Cc2ccc(O)cc2)C(=O)O)CSSC1(C)C` [Example 90, Lys-^DAla-Pro-Val-Pro-Ile-Ile-Tyr-Pen-Asn-Arg-Dab-Thr-^DDab-Lys-Cys-Dab-Arg-Tyr] (HELM PEPTIDE1{K.[dA].P.V.P.I.I.Y.[Pen].N.R.[Dab].T.[NCC[C@@H](N[*:1])C(=O)[*:2]].K.C.[Dab].R.Y}$PEPTIDE1,PEPTIDE1,9:R3-16:R3$$$V2.0): the “Escherichia coli ATCC 25922 MIC” value in data set [1] came to 0.25 µg/mL. In data set [2], the “Escherichia coli MCR-1 Af 45 MIC” value came to 0.0625 µg/mL. In addition, in data set [3], the “Klebsiella pneumoniae SSI3010 MIC” value was determined as 0.125 µg/mL. Besides, in data set [4], the “Hemolysis at 0.2 g/L” value is on record as 0%.
The corresponding values for `CC[C@H](C)[C@H](NC(=O)[C@@H](NC(=O)[C@@H]1CCCN1C(=O)[C@@H](NC(=O)[C@@H]1CCCN1C(=O)CNC(=O)[C@@H](N)CCCCN)C(C)C)[C@@H](C)CC)C(=O)N[C@@H](Cc1ccc(O)cc1)C(=O)N[C@@H]1C(=O)N[C@@H](CC(N)=O)C(=O)N[C@@H](CCCNC(=N)N)C(=O)N[C@@H](CCN)C(=O)N[C@@H]([C@@H](C)O)C(=O)N[C@H](CCN)C(=O)N[C@@H](CCCCN)C(=O)N[C@H](C(=O)N[C@@H](CCN)C(=O)N[C@@H](CCCNC(=N)N)C(=O)N[C@@H](Cc2ccc(O)cc2)C(=O)O)CSSC1(C)C` [Example 91] (HELM PEPTIDE1{K.G.P.V.P.I.I.Y.[Pen].N.R.[Dab].T.[NCC[C@@H](N[*:1])C(=O)[*:2]].K.C.[Dab].R.Y}$PEPTIDE1,PEPTIDE1,9:R3-16:R3$$$V2.0) are 0.125 µg/mL, at most 0.03125 µg/mL, 0.125 µg/mL and 0%.
The corresponding values for `CC[C@H](C)[C@H](NC(=O)[C@@H](NC(=O)[C@@H]1CCCN1C(=O)[C@@H](NC(=O)[C@@H]1CCCN1C(=O)CN(C)C(=O)[C@@H](N)CCCCN)C(C)C)[C@@H](C)CC)C(=O)N[C@@H](Cc1ccc(O)cc1)C(=O)N[C@@H]1C(=O)N[C@@H](CC(N)=O)C(=O)N[C@@H](CCCNC(=N)N)C(=O)N[C@@H](CCN)C(=O)N[C@@H]([C@@H](C)O)C(=O)N[C@H](CCN)C(=O)N[C@@H](CCCCN)C(=O)N[C@H](C(=O)N[C@@H](CCN)C(=O)N[C@@H](CCCNC(=N)N)C(=O)N[C@@H](Cc2ccc(O)cc2)C(=O)O)CSSC1(C)C` [Example 92, Lys-Sar-Pro-Val-Pro-Ile-Ile-Tyr-Pen-Asn-Arg-Dab-Thr-^DDab-Lys-Cys-Dab-Arg-Tyr] (HELM PEPTIDE1{K.[Sar].P.V.P.I.I.Y.[Pen].N.R.[Dab].T.[NCC[C@@H](N[*:1])C(=O)[*:2]].K.C.[Dab].R.Y}$PEPTIDE1,PEPTIDE1,9:R3-16:R3$$$V2.0) are 0.0625 µg/mL, at most 0.03125 µg/mL, 0.0625 µg/mL and 0%.
The corresponding values for `CC[C@H](C)[C@H](NC(=O)[C@@H](NC(=O)[C@@H]1CCCN1C(=O)[C@@H](NC(=O)CNC(=O)CNC(=O)[C@@H](N)CCCCN)C(C)C)[C@@H](C)CC)C(=O)N[C@@H](Cc1ccc(O)cc1)C(=O)N[C@@H]1C(=O)N[C@@H](CC(N)=O)C(=O)N[C@@H](CCCNC(=N)N)C(=O)N[C@@H](CCN)C(=O)N[C@@H]([C@@H](C)O)C(=O)N[C@H](CCN)C(=O)N[C@@H](CCCCN)C(=O)N[C@H](C(=O)N[C@@H](CCN)C(=O)N[C@@H](CCCNC(=N)N)C(=O)N[C@@H](Cc2ccc(O)cc2)C(=O)O)CSSC1(C)C` [Example 93] (HELM PEPTIDE1{K.G.G.V.P.I.I.Y.[Pen].N.R.[Dab].T.[NCC[C@@H](N[*:1])C(=O)[*:2]].K.C.[Dab].R.Y}$PEPTIDE1,PEPTIDE1,9:R3-16:R3$$$V2.0) are 0.0625 µg/mL, 0.0625 µg/mL, 0.125 µg/mL and 0%.
